In brackets after ≈: the same amount, converted by molar mass.
Experiments:
physchem = details: 25 °C, thermodynamic from solid
sDMA in tumor samples = test: sDMA levels in Granta-519 xenograft tumor samples by western blot; type: in vivo, mouse; details: 12 hours after last dosing
Description: Granta-519 cells was maintained in DMEM medium supplemented with 10% fetal bovine serum and 2 mM L-Glutamine at 37° C. in an atmosphere of 5% CO2 in air. Cells in exponential growth phase were harvested and 1×10^7 cells in 0.1 mL of PBS with Matrigel (1:1) were injected subcutaneously at the right lower flank region of each mouse for tumor development. The treatments were started when the mean tumor size reaches approximately 300-400 mm^3. […] Example 47 or vehicle (0.5% Na CMC+0.5% Tween80, suspension) were administered orally (QD for Example 47, QD for vehicle) at a dose of 30 mg/kg and 50 mg/kg for 19 and 16 days, respectively. Body weights and tumor size were measured every 3 to 4 days after randomization. Animals were euthanized 12 hours after last dosing, and blood and tumor samples were collected for analysis.
To measure sDMA levels in tumor samples, tumors from each mouse were weighted and homogenized in RIPA buffer supplemented with protease inhibitor (cOmplete™, EDTA-free Protease Inhibitor Cocktail, Roche). Lysate were centrifuged at 14,000 rpm for 30 min at 4° C. to remove debris. Total protein concentrations of lysate were determined by BCA assay (ThermoFisher Scientific, Catalog #: 23225). Equal amount of total proteins from each tumor were separated on SDS-PAGE gel, and sDMA levels were determined by WB as described previously.

PRMT5/MEP50 complex = PRMT5/MEP50 complex (Homo sapiens (Human), UniProt O14744); test: Biochemical assay: PRMT5/MEP50 methylation of histone H2A with 3H-SAM, filter plate scintillation; details: histone H2A 5 μM, SAM 1 μM, PRMT5/MEP50 5 nM
Description: Biochemical Assay Protocol
Compounds were solubilized and 3-fold diluted in 100% DMSO. […] Standard reactions were performed in a total volume of 50 μl in assay buffer, with histone H2A (5 μM final) as substrate. To this was added the PRMT5/MEP50 complex diluted to provide a final assay concentration of 5 nM and the compounds were allowed to preincubate for 15 to 20 minutes at room temperature. The reaction was initiated by adding S-[3H-methyl]-adenosyl-L-methionine (PerkinElmer) to final concentration of 1 μM. Following a 60 minutes incubation at 30° C., the reaction was stopped by adding 100 μL of 20% TCA. Each reaction was spotted onto filter plate (Multi Screen FB Filter Plate, Millipore), and washed 5 times with PBS buffer, Scintillation fluid was added to the filter plate and read in a scintillation counter. IC50 values were determined by fitting the data to the standard 4 parameters with Hill Slope using GraphPad Prism software.

Chain of PRMT5/MEP50 complex (O14744 whole entry): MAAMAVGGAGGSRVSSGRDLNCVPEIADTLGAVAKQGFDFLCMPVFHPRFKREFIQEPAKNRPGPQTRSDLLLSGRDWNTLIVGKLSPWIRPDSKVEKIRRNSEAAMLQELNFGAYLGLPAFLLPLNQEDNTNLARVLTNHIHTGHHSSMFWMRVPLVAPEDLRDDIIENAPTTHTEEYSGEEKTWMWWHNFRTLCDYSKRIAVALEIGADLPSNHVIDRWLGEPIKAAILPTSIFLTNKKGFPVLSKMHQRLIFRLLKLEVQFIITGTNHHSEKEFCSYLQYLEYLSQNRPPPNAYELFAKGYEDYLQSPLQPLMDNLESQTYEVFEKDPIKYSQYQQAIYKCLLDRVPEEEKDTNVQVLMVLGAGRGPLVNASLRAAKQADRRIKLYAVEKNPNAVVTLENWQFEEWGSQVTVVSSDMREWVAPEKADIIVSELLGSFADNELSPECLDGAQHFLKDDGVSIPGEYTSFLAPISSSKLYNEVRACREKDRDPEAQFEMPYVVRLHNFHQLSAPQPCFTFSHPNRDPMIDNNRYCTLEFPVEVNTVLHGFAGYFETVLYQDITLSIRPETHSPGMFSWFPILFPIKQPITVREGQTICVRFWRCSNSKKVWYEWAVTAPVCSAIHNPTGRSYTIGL
Chain of PRMT5/MEP50 complex (Q9BQA1 whole entry partner): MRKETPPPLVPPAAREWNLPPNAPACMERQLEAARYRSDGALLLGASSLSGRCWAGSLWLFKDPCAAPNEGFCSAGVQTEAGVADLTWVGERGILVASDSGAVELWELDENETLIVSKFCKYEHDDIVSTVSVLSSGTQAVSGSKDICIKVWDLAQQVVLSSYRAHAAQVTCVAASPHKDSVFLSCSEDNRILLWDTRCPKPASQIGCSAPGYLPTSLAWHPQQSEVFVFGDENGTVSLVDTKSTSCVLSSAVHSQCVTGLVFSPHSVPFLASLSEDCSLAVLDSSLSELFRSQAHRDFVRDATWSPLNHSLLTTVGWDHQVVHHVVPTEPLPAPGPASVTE

O=C1C(O)=C([C@H]2CC[C@H](c3ccc(Cl)cc3)CC2)C(=O)c2ccccc21 [Atovaquone]
solubility at 4 h (physchem; fassif): < 2 µg/mL

C[C@@]1(O)[C@@H]([C@H](O)c2ccc(Cl)c(Cl)c2)O[C@@H](n2ccc3c(N)ncnc32)[C@@H]1O [Example 47, (2R,3S,4R,5R)-5-(4-amino-7H-pyrrolo[2,3-d]pyrimidin-7-yl)-2-((R)-(3,4-dichlorophenyl)(hydroxy)methyl)-3-methyltetrahydrofuran-3,4-diol]
inhibition of sDMA (sDMA in tumor samples; 30 mg/kg orally QD): > 90% | sDMA level in tumor (sDMA in tumor samples; 50 mg/kg orally QD): no detectable sDMA

C[C@@]1(O)[C@@H]([C@@H](O)c2ccc(Cl)c(Cl)c2)O[C@@H](n2ccc3c(N)ncnc32)[C@@H]1O [Example 66, (2R,3S,4R,5R)-5-(4-amino-7H-pyrrolo[2,3-d]pyrimidin-7-yl)-2-((S)-(3,4-dichlorophenyl)(hydroxy)methyl)-3-methyltetrahydrofuran-3,4-diol]
IC50 (PRMT5/MEP50 complex): 707 nM

CC(=O)CC(c1ccccc1)c1c(O)c2ccccc2oc1=O (centres unmarked) [Warfarin]
solubility at 4 h (physchem): 10 to 25 µg/mL (≈ 32.4 to 81.1 µM)

From patent US11078205B2, “Selective inhibitors of protein arginine methlytransferase 5 (PRMT5)” (Prelude Therapeutics, Incorporated, priority 2017, dated 2021)
